Patent US20250073250A1, “Improved synthesis of lysine acetylsalicylate - Glycine particles” (AspiAir GmbH, priority 2022, published 2025)
Where two headings read alike, the source gives them in different places.

Columns and labels:
Assay type in all cases: physicochemical
[1] = Particle size distribution (PSD) by laser diffraction; settings: for Dv10 / Dv50 / Dv90: volume-based
Description: Unless mentioned otherwise, the particle size values provided herein (either measured or calculated/derived from measured values) refer to particle diameters and were determined using a laser diffraction device, and its related evaluation software (here, for instance, a Mastersizer® device from Malvern Instruments Ltd.); all laser diffraction measurements complied with ISO-13320 standards. Where referring to the particle size measurements, all percentages provided herein (such as ‘at least 90% of the particles have a particle size of . . . ’) are to be understood as volume-percentages. […] Where available, three or more batches of the substances were tested, and mean values of their PSD-data obtained.

[2] = Manual dissolution of 1000 mg LASAG in 8 mL glass vial with 5 mL water for injection; settings: 1000 mg in 5 mL water for injection, 8 mL vial
From the text: As mentioned above, by controlling the particle size of the LASAG, it is possible to control parameters such as the dissolution speed (also referred to as dissolution rate). […] Special precautionary measures” that the reconstituted solution should preferably be filtered with a 5 μm filter before its application, as such indicating potential issues with (quick) dissolution. Especially, when considering that LASAG is inter alia employed in the treatment of myocardial infarction, i.e., an acute health crisis where time is of critical importance, a faster, more readily occurring dissolution of the LASAG used, can represent a clinically relevant advantage.
An amount of 5 mL water for injection purposes was injected through the sealing stopper over the course of about 25-30 seconds, the needle then removed, and the vial shaken, or swirled, manually until complete dissolution (no residual solids visible to the human eye). The same test was performed with a commercially available Aspirin® i.v. vial. Each test was repeated at least 3 times per type of LASAG. This test and the resulting dissolution behaviour are considered similar to what is likely to be observed by, for instance, paramedics in an ambulance or medical staff in hospitals upon dissolving the dry LASAG particles in pre-filled vials by adding water for injection purposes and shaking manually. […]

[3] = Dissolution on horizontal shaker; settings: 1000 mg in 5 mL water, 25 mL test tube, horizontal shaker 1055 rpm, 5 s intervals
Description: An amount of 5 mL water for injection purposes was added, and the vial shaken in intervals of 5 seconds at 1055 rpm until complete dissolution (no residual solids visible to the human eye). The same test was performed with a commercially available Aspirin® i.v. vial. Each test was repeated at least 3 times per type of LASAG.

[4] = Glass adhesion in 8 mL glass vial (gravimetric)
Description: After opening the vial and emptying out any non-adhered powder by simple gravitational spill, the vial with the adhered particles inside is weighed again, to thereby gravimetrically determine the weight of the adhered particles. Low glass adhesion facilitates handling of the vials (e.g., better visibility into the vial), and ensures that the complete intended dose is dissolved upon adding water to the vial (rather than, for instance, some material sticking to the upper end of the vial, near the stopper, where the water, that is added into the vial via injection through a needle, may not reach). […] On at least five consecutive days, the vial was manually moved, or rotated, once daily around all its axes to properly disperse the LASAG particles and allow them to coat the inner glass surface. After seven days, the vials were emptied by simply turning them upside down and allowing all non-adhering powder to spill out, or fall out, under gravity, followed by firmly tapping the vial five times onto a solid surface. No noteworthy adhesion to the stopper was observed. The weight of the remainder, i.e., the weight of the LASAG powder still sticking to the glass wall inside the vial after emptying, was determined gravimetrically. The same test was performed with a commercially available Aspirin® i.v. vial.

[5] = Stability in aqueous solution (salicylic acid content by HPLC)
Description: Due to its instability in water, LASAG is commonly used as a dry powder, and specifically as a dry powder for reconstitution; in other words, an aqueous solution thereof is not necessarily meant to be stored for extended periods of time but instead is prepared freshly prior to each use. Stability in aqueous solution is nonetheless an important feature for users, for instance, in order to know how long a prepared solution can still be used; a content of ≤1.5 wt.-% of the LASAG-degradant salicylic acid (SA) in a solution is typically considered acceptable. […] In between sample time points, the vials were kept closed.
The following time points were measured:
For the HPLC-analysis, an Agilent Zorbax SB-C18 column was used (4.6×250 mm, 5 μm) at 22° C. with isocratic elution over 40 minutes at an eluent flow rate of 1 mL/min. The eluent was an 80 mM ammonium acetate/acetonitrile solution (60:40) prepared by dissolving 4 g ammonium acetate in 600 mL HPLC-grade water, adjusting the pH to 2.0 using trifluoroacetic acid, then adding 400 mL acetonitrile and homogenising the mixture. The injected sample volume was 10 μL. A UV-detector was used at 237 nm to analyse the samples.

[6] = Storage stability in dry state in aluminium-lined polyethylene bags
Description: At 5±3° C. […] After continuation of the cold storage stability study for a further 12 months, this stability finding is reconfirmed, with the extrapolated value being increased to from 70.9±3.5 months to 200±5 months.

[7] = Specific surface area by BET gas adsorption
From the text: Without wishing to be bound by theory, it seems possible that not only the smaller median particle size of the LASAG according to the present invention is responsible for its faster dissolution but also its higher specific surface area.

[8] = listed as LASAG 2 (batch in clinical study)

## CC(=O)Oc1ccccc1C(=O)O.NCC(=O)O.NCCCCC(N)C(=O)O (racemic) [LASAG 2, lysine acetylsalicylate⋅glycine]
[1]
  1st max. of particle size distribution: 20.4 μm
  Dv10: 4.2 μm
  Dv50: 18.4 μm
  Dv90: 53.3 μm
[1]; [8]
  1st max. of particle size distribution: 18.7 μm
  Dv10: 3.8 μm
  Dv50: 16.3 μm
  Dv90: 40.4 μm
[1]; listed as LASAG of the present invention
  Dv90: about 50 μm
[2]; manual
  shaking/swirling motions until complete dissolution: 3-5
[2]; manual shaking/swirling
  time from removing the needle until complete dissolution: 15 to 30 s
[3]
  time until complete dissolution: 18.3 ± 2.9 s
[4]; 1000 mg in 8 mL vial, after seven days, emptied and tapped
  weight remaining in the vial (adhering to glass): 5.12 ± 0.35 mg
[4]; inner glass surface approx. 29 cm^2
  glass adhesion per inner glass surface: about 0.177 mg/cm^2
[5]; 1.0 g in 5.0 mL water, room temperature (20±5° C.)
  time at which solution exceeds 1.5 wt.-% salicylic acid content: about 1 h
[5]; over time range and storage conditions tested
  changes in colour or clarity of solution: None
[6]; 5±3° C., extrapolated after continuation of study for a further 12 months
  Time until reaching salicylic acid threshold of 1.5%: 200±5 months
[6]; 5 ± 3° C., n = 3, extrapolated, listed as LASAG according to present invention
  Time until reaching salicylic acid threshold of 1.5%: 70.9 ± 3.5 months
[6]; 25 ± 2° C. 60 ± 5% r.h., n = 3
  Time until reaching salicylic acid threshold of 1.5%: 10.3 ± 2.0 months
[6]; 30 ± 2° C. 65 ± 5% r.h., n = 3
  Time until reaching salicylic acid threshold of 1.5%: 3.5 ± 1.2 months
[6]; 40 ± 2° C. 75 ± 5% r.h., n = 3
  Time until reaching salicylic acid threshold of 1.5%: 0.2 ± 0.0 months
[7]
  specific surface area: 2.4±0.1 m^2/g
